Ends that are not written are not given here.
Legend:
[1] = Pharmacokinetics after intra-tracheal dry powder delivery to anaesthetised pigs; assay type: in vivo; conditions: pig, inhaled or intranasal, pramlintide/insulin aspart powder delivered intra-tracheally, plasma
Method: For pulmonary delivery the PennCentury™ DP-4 dry powder insufflator (Penn-Century Inc) modified for pigs was used in combination with the PennCentury™ adjustable air pump, model AP-1 (Penn-Century Inc). The powder is weighed into the sample chamber of the device and manually emitted from the device by using the AP-1 adjustable pump.
The pigs were fasted for approximately 18 h before the experiment. Anaesthesia was induced by injecting Domitor IV (1 mg/mL, 0.4 mL/pig), followed by slow IV infusion of Propofol (10 mg/ml) until the sufficient depth of anaesthesia was obtained, approximately 10-15 mL/pig in total. Atropin (1 mg/ml, 0.5 mL/pig) was injected i.m. to stabilize cardiac parameters and to decrease bronchial secretions. After anaesthesia (and) the pigs were intubated with an endotracheal tube size 8.0 mm. Via an L-piece and the endotraceal tube the pigs were connected to a respirator, with respiration frequency set to 10/min and tidal volume to 300 mL/breath to mimic deep inhalations in humans. […]
Insulin aspart was analyzed using an in-house LOCI sandwich immunoassay with two different antibodies. […] Pramlintide was analyzed using a commercially available human amylin ELISA kit modified for porcine samples (Linco Research, cat. no. EZHA-52K). […]

[2] = cited from earlier work
[3] = when compared to human amylin; cited from earlier work
[4] = Enhancement of peptide absorption in the lung by absorption enhancers (animal model); assay type: in vivo; conditions: tested as absorption enhancer, pulmonary route
[5] = treated test animals; e.g. provoking marked hyperlactemia followed by hyperglycemia; cited from earlier work

Compound | enhancement of peptide absorption in the lung [4] | amylin activity in vivo [5] | also measured
CC[C@H](C)[C@H](NC(=O)[C@@H]1CCCN1C(=O)CNC(=O)[C@H](Cc1ccccc1)NC(=O)[C@H](CC(N)=O)NC(=O)[C@H](CC(N)=O)NC(=O)[C@H](CO)NC(=O)[C@H](CO)NC(=O)[C@H](Cc1c[nH]cn1)NC(=O)[C@@H](NC(=O)[C@H](CC(C)C)NC(=O)[C@H](Cc1ccccc1)NC(=O)[C@H](CC(N)=O)NC(=O)[C@H](C)NC(=O)[C@H](CC(C)C)NC(=O)[C@H](CCCNC(=N)N)NC(=O)[C@H](CCC(N)=O)NC(=O)[C@@H](NC(=O)[C@H](C)NC(=O)[C@@H]1CSSC[C@H](NC(=O)[C@@H](N)CCCCN)C(=O)N[C@@H](CC(N)=O)C(=O)N[C@@H]([C@@H](C)O)C(=O)N[C@@H](C)C(=O)N[C@@H]([C@@H](C)O)C(=O)N1)[C@@H](C)O)C(C)C)C(=O)N[C@@H](CC(C)C)C(=O)N1CCC[C@H]1C(=O)N1CCC[C@H]1C(=O)N[C@H](C(=O)N[C@@H](CC(N)=O)C(=O)N[C@H](C(=O)NCC(=O)N[C@@H](CO)C(=O)N[C@@H](CC(N)=O)C(=O)N[C@H](C(=O)N[C@@H](Cc1ccc(O)cc1)C(N)=O)[C@@H](C)O)C(C)C)[C@@H](C)O [Symlin, ^25,28,29Pro-h-amylin] |  |  | Tmax [1]: 40 min; time to reach Cmax ([2]; after a subcutaneous injection): approximately 20 minutes; plasma t½ ([2]; subcutaneous injection): approximately 20 minutes; solubility and stability characteristics [3]: more desirable solubility and stability characteristics
C[C@H](CCC(=O)NCC(=O)O)[C@H]1CC[C@H]2[C@@H]3[C@H](O)C[C@@H]4C[C@H](O)CC[C@]4(C)[C@H]3C[C@H](O)[C@]12C [glycocholate] | effectively enhance peptide absorption in the lung |  | 
CC(=O)OC1CC2(C)C(CC(O)C3C4(C)CCC(O)C(C)C4CCC32C)C1=C(CCCC(C)C)C(=O)NCCS(=O)(=O)O (stereo not drawn) [taurodihydrofusidate] | effectively enhance peptide absorption in the lung |  | 
C[C@H](CCC(=O)O)[C@H]1CC[C@H]2[C@@H]3[C@@H](O)C[C@@H]4C[C@H](O)CC[C@]4(C)[C@H]3CC[C@]12C [ursodeoxycholate] | effectively enhance peptide absorption in the lung |  | 
Dimethyl-β-cyclodextrin | absorption enhancing effect |  | 
^18Arg^25, 28Pro-h-amylin |  | show amylin activity in vivo | solubility and stability characteristics [3]: more desirable solubility and stability characteristics
^25Pro^26Val^28, 29Pro-h-amylin |  |  | solubility and stability characteristics [3]: more desirable solubility and stability characteristics
^28Pro-h-amylin (KCNTATCATQRLANFLVHSSNNFGAILPSTNVGSNTY; ends and bridges not checked; cysteine pairing not given here; UniProt P10997 34-70, looked up, variant S28P) |  | show amylin activity in vivo | 
des-^1Lys-h-amylin (CNTATCATQRLANFLVHSSNNFGAILSSTNVGSNTY; ends and bridges not checked; cysteine pairing not given here; UniProt P10997 35-70, looked up, fragment) |  | show amylin activity in vivo | 
des-^1Lys^18Arg^25, 28Pro-h-amylin |  | show amylin activity in vivo | 
lysophospatidylcholine | effective enhancer |  | 
